# Source: patent publication US8057990B2, “Screening method” (Takeda Pharmaceutical Company Limited, priority 2005, dated 2011)
# Columns and labels:
# human GPR30 [1] = target: T1, human GPR30 (Homo sapiens, UniProt Q99527, P21A/Q20H); settings: human GPR30 expression CHO cells; tacrine 0.67-67 μM; Fluo 3-AM
# Protocol: 200 μl of each type of cells was planted in each well of a 96-well plate for FLIPR (Black plate clear bottom, Coster) using an 8-channel pipette (3.0×10^4 cells/200 μl/well) and cultured in a 5% CO2 incubator at 37° C. overnight (hereinafter, referred to as the “cell plate”) before use. 20 ml of H/HBSS, 200 μl of 250 mM Probenecid, and 200 μl of fetal bovine serum (FBS) were mixed. 2 vials (50 μg) of Fluo 3-AM (Dojindo Laboratories) were lysed in […] of dimethylsulfoxide and 40 μl of 20% Pluronic acid (Molecular Probes), and the resultant substance was added to H/HBSS-Probenecid-FBS and mixed. Then, the resultant mixture was divided into units of 100 μl and put to each well of the cell plate deprived of the culture fluid using an 8-channel pipette, and incubated in a 5% CO2 incubator at 37° C. for 1 hour (colorant loading). 8 μl of a tacrine solution (Aldrich Chemical Company) of various concentrations was added to 259 μl of H/HBSS containing 2.5 mM Probenecid, 0.1% CHAPS and 0.1% BSA, and diluted. […] The cell plate and the sample plate were set in an FLIPR (501 of sample was transferred from the sample plate to the cell plate by the FLIPR), and a change of the fluorescent intensity was measured over-time. Thus, the intracellular calcium ion concentration increase activity was measured.
# rat GPR30 = rat GPR30 (Rattus norvegicus, UniProt O08878, S320N); settings: rat GPR30 expression CHO cells; tacrine 0.67-67 μM; Fluo 3-AM
# Protocol: The plasmid pAK-rGPR30 was transduced by electroporation into CHO/dhfr^− cells (American Type Culture Collection) in the method described in REFERENCE EXAMPLE 1, and transformed CHO cells expressing rat GPR30 (hereinafter, referred to simply as “rat GPR30 cells”) at a high ratio were selected.
# 200 μl of each type of cells was planted in each well of a 96-well plate for FLIPR (Black plate clear bottom, Coster) using an 8-channel pipette (3.0×10^4 cells/200 μl/well) and cultured in a 5% CO2 incubator at 37° C. overnight (hereinafter, referred to as the “cell plate”) before use. 20 ml of H/HBSS, 200 μl of 250 mM Probenecid, and 200 μl of fetal bovine serum (FBS) were mixed. 2 vials (50 μg) of Fluo 3-AM (Dojindo Laboratories) were lysed in […] of dimethylsulfoxide and 40 μl of 20% Pluronic acid (Molecular Probes), and the resultant substance was added to H/HBSS-Probenecid-FBS and mixed. […] The cell plate and the sample plate were set in an FLIPR (501 of sample was transferred from the sample plate to the cell plate by the FLIPR), and a change of the fluorescent intensity was measured over-time. Thus, the intracellular calcium ion concentration increase activity was measured.
# human GPR30 [2] = target: T1, human GPR30; settings: GPR30 expression HeLa cells; tacrine 100 μM; 4 hours
# Protocol: (§1) Separately, a reporter plasmid of pSRE-Luc (Invitrogen) ligated with a luciferase gene as a reporter at a downstream position of a serum response element (SRE), and expression vector plasmids for human GαoA, human Gβ1 and human Gγ2, which are each a kind of G proteins, were prepared in substantially the same manner. HeLa cells were used as host cells for transfecting the G protein-coupled receptor protein expression plasmid pAK-hGPR30 and the reporter plasmids. The cells were planted on a 384-well assay plate (COSTAR 3704) at a ratio of 4000 cells/well in a culture volume of 25 μl, and incubated overnight. As the medium, DMEM (Invitrogen) supplemented with 10% fetal bovine serum and 1% MEM non-essential amino acids solution (DMEM/NEAA) was used. Each plasmid was diluted to a concentration of 240 ng/μl. Plasmids were added to 250 μl of Opti-MEM-I (Invitrogen) at a ratio of 1 μl of pAK-hGPR30, 9 μl of the reporter plasmid, and 1 μl of each of the G protein expression plasmids for GαoA, Gβ1 and Gγ2. […] After the cells were lysed and thoroughly mixed with the substrate, the chemiluminescence level corresponding to the expression induction level of the reporter gene in each well was measured on a plate reader (EnVision™, Perkin Elmer).
# [3] = system: HeLa cells not expressing human GPR30; settings: pAKKO-1.11H-transfected control HeLa cells; tacrine 100 μM; 4 hours
# Protocol: as §1
# T1 sequence (Q99527 whole entry Q20H/P21A): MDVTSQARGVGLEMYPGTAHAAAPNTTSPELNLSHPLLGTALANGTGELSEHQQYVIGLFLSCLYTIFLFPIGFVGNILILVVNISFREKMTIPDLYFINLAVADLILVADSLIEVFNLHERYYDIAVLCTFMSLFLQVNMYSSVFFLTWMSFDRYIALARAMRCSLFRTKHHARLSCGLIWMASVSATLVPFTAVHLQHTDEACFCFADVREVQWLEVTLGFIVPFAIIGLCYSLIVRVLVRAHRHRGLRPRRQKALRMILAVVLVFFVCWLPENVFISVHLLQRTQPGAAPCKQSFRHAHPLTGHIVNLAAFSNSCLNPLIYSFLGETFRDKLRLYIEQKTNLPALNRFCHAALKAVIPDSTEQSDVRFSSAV
# Sequence of rat GPR30 (O08878 whole entry S320N): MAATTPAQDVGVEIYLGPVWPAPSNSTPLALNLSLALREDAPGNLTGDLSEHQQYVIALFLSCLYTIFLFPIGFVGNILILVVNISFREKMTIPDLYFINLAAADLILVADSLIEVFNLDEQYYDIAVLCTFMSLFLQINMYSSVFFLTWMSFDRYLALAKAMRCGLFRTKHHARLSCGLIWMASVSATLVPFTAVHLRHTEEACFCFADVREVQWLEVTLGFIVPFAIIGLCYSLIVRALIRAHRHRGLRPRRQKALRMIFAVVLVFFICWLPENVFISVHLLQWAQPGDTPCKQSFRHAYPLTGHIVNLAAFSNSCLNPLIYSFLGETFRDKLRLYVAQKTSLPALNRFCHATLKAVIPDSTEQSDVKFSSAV
structure (smiles),measurement,setting,value
"Nc1c2c(nc3ccccc13)CCCC2 [tacrine, 1,2,3,4-tetrahydro-9-acridinamine]","intracellular calcium ion concentration (change of fluorescent intensity, FLIPR)",human GPR30 [1],increased in a concentration-depending manner
same,"intracellular calcium ion concentration (change of fluorescent intensity, FLIPR)",rat GPR30,increased in a concentration-depending manner
same,luciferase activity (pSRE-Luc reporter),human GPR30 [2],significant increase
same,luciferase activity (pSRE-Luc reporter),[3],no significant activity increase
